Data on 5 compounds can be found in paper PMC11638965, “Leveraging Dual-Ligase Recruitment to Enhance Protein Degradation via a Heterotrivalent Proteolysis Targeting Chimera” (Journal of the American Chemical Society, 2024).

What all share (format): cell-based
The target of test [1] is T1, BRD2 (Homo sapiens, UniProt P25440).
T1 construct: HiBiT, is appended to the N-terminus of endogenous BRD2, BRD3, and BRD4; endogenous in cells
Briefly: Live cell kinetic HiBiT degradation assay, HiBiT-BRD2 HEK293 cells. The settings on record: for λmax BRD2 (degradation rate): HiBiT-BRD2 knock-in HEK293 cells; for DC50: HiBiT-BRD2 CRISPR knock-in HEK293 cells, live cell kinetic degradation, 24 h, read-out: Dmax 50 BRD2. The method, then:
HEK293 HiBiT-BRD2 (LgBiT stable), HEK293 HiBiT-BRD3 (LgBiT stable), and HEK293 HiBiT-BRD4 (LgBiT stable) were created using CRISPR/Cas9 to insert at HiBiT tag at the N-terminal genomic loci of BRD2, BRD3, or BRD4 in a cell line stably expressing LgBiT protein as described previously.[23]
For kinetic degradation experiments, HEK293 HiBiT-BRD2, 3, or 4 (LgBiT stable) cells and HEK293 HiBiT-BRD4 (LgBiT) CRBN KO and VHL KO cells were plated at 20,000 cells/well in DMEM +10% FBS in white 96-well tissue culture plates and allowed to adhere overnight. The next day, media was removed and 90 μL of prewarmed CO2-independent medium (Gibco) containing Endurazine (Promega) at a 1:100 dilution from stock was added. Plates were incubated at 37 °C for 3 h to allow luminescence to equilibrate. A threefold dilution series of each PROTAC at 10x the desired final concentration was prepared (with the amount of DMSO in each treatment condition kept constant). After luminescence equilibration, a preread luminescence measurement was taken (prior to compound addition) to allow for baseline normalization to account for possible plating differences. Cells were then treated with 10 μL of the prepared PROTAC dilution series (in triplicate or quadruplicate). Treated plates were placed in a GloMax Discover luminometer (Promega) prewarmed to 37 °C and luminescence measurements were obtained every 7 min for 24 h. Kinetic degradation plots were obtained by first normalizing time course luminescence readings in each well to the preread measurement, then to the average value of the DMSO only control at each time point. Data was analyzed using GraphPad Prism (version 8) and excel. Dmax values were identified as the lowest luminescence reading in each well. Rate constant values were calculated using a one phase exponential decay Y = (Y0-Plateau) e(K*^X) + Plateau using Prism (Y0 constrained to 1). Dmax 50 values were calculated by plotting Dmax as a function of concentration, then fitting plots using the following equation: [drawing 1] to determine IC50.
(HiBiT is a short tag that completes a luciferase, so light tracks the accessible tagged protein.)

The target in test [2] is T1, BRD2. Briefly: Western blot dose-response degradation in HEK293 cells. The settings on record: 6 h; for DC50: mean ± S.E.M. of three experiments, values marked b mean ± S.D. of two. The method, then:
(§1) HEK293 cells were obtained from ATCC. HEK293 was cultured in DMEM supplemented with 10% (v/v) fetal bovine serum (FBS), 1% […] and 1% (v/v) penicillin/streptomycin (pen/strep) at 37 °C, 5% CO2, and 95% humidity.
(§2) HEK293 cells were plated at a density of 5 × 10^5 cells per well of a six well plate a day prior to initiation of the experiment. Compounds were dissolved to a 10 mM concentrated stock solution in DMSO from which the compounds were further diluted to a working concentration range of 1 μM to 100 pM in DMEM and was subsequently added to cells at the initiation of the experiment. An additional vehicle control was added to cells alongside compound treatments. Cells were left to incubate with compound for 6 h at 37 °C, 5% CO2, and 95% humidity. Cells were then subsequently washed twice with PBS before being harvested in RIPA buffer supplemented with protease inhibitor cocktail and Benzonase Nuclease before being store at −20 °C.
(§3) Protein concentration was determined using the BCA assay. Samples were then prepared in LDS buffer containing 5% 1 M DTT and subsequently loaded onto NuPAGE 4–12% Bis-Tris Midi gels, followed by the transfer of the proteins onto nitrocellulose membranes. The membranes were blocked for 1 h prior to incubation with the primary antibodies using 5% Milk TBST. Membranes were incubated at 4 °C in either BRD4(Ab128874), BRD3(Ab50818), BRD2(Ab139690), VHL(CST#68547) and CRBN(CST#71810) primary antibody overnight. Following overnight incubation, the membranes were incubated with complementary IRDye 800CW secondary antibody and a hFAB Rhodamine Anti-Tubulin Primary Antibody (loading control) for 1 h and then imaged with a Bio-Rad imager. All Western blots were analyzed for band intensities using Image Lab (Bio-Rad). The data extracted from these blots were then plotted and analyzed using Prism (v. 10.2.2, GraphPad). Linear regression curve fitting was used to calculate pDC50 values. The standard deviation of the pDC50 was calculated for all compounds that had two independent repeats and the standard error of the mean calculated for all compounds that had three independent repeats. All Western blotting figures were developed in Adobe illustrator.
Background: Immunoblotting shows a protein as a band on a membrane.

In a further test the target is T2, BRD3 (Homo sapiens, UniProt Q15059).
T2 construct: HiBiT, is appended to the N-terminus of endogenous BRD2, BRD3, and BRD4; endogenous in cells
The test is described as above. As to conditions: 6 h, mean ± S.E.M. of three experiments, values marked b mean ± S.D. of two. The method, then:
as §1, §2, §3

The target in a further test is T3, BRD4^Long (Homo sapiens, UniProt O60885).
T3 construct: Western blot data for BET, CRBN and VHL protein levels; endogenous in cells; host or cells: HEK293 (ATCC)
Described as above. As to conditions: HEK293 cells, 6 h, Western blot; mean ± S.E.M. of three experiments, values marked b mean ± S.D. of two. The method, then: as §1, §2, §3

The target of the next test is T4, BRD4^Short (Homo sapiens, UniProt O60885).
T4 construct: Western blot data for BET, CRBN and VHL protein levels; endogenous in cells; host or cells: HEK293 (ATCC)
The test is described as above. The settings on record: 6 h, mean ± S.E.M. of three experiments, values marked b mean ± S.D. of two. The method, then:
as §1, §2, §3

Another test has as its target CRBN (Homo sapiens, UniProt Q96SW2). The test is described as above. On the set-up: Western blot data for BET, CRBN and VHL protein levels; endogenous in cells; host or cells: HEK293 (ATCC). As to conditions: for fold weaker degradation of CRBN compared with aniline tethered matched pair: 31 and 32 compared with 23 and 27, respectively, DC50, HEK293 Western blot; for DC50: HEK293 cells, 6 h, Western blot, mean ± S.E.M. of three experiments, values marked b mean ± S.D. of two. The method, then:
as §1, §2, §3

Values joined by “and” are separate entries in the source; they are usually repeats but may differ in a detail not shown here. Equal values may be shown once.

Sequence of CRBN (Q96SW2 whole entry): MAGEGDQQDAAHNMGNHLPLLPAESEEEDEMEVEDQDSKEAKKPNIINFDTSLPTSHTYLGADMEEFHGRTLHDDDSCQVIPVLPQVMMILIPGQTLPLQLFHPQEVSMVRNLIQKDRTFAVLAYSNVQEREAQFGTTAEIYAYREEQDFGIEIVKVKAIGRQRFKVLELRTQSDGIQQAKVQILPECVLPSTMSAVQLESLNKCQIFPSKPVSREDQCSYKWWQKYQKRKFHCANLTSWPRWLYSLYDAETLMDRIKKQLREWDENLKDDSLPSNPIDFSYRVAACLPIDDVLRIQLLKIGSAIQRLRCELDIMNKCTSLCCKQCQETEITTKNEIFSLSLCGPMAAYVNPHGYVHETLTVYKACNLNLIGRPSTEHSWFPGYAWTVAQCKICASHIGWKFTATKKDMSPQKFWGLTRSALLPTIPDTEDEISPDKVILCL
T2 sequence (Q15059 whole entry): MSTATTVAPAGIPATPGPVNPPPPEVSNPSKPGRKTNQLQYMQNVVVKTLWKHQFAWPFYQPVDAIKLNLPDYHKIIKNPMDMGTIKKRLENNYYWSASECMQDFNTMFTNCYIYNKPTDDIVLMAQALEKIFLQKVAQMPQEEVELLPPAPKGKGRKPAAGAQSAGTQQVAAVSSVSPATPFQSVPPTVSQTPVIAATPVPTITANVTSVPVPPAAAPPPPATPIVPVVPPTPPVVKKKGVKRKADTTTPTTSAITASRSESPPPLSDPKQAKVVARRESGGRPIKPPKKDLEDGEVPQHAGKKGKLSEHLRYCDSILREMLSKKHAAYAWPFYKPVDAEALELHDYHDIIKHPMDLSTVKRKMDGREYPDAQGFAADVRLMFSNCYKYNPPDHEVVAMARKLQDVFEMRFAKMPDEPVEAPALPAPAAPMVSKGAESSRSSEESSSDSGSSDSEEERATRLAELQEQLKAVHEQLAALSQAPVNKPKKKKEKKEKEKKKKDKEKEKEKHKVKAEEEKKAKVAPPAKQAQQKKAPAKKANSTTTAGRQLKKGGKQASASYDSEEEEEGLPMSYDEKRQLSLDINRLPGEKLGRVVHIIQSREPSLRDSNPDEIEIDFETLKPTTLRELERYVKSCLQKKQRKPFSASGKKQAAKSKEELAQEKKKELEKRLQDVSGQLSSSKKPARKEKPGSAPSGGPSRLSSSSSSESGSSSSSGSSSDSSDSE
T1 sequence (P25440 whole entry): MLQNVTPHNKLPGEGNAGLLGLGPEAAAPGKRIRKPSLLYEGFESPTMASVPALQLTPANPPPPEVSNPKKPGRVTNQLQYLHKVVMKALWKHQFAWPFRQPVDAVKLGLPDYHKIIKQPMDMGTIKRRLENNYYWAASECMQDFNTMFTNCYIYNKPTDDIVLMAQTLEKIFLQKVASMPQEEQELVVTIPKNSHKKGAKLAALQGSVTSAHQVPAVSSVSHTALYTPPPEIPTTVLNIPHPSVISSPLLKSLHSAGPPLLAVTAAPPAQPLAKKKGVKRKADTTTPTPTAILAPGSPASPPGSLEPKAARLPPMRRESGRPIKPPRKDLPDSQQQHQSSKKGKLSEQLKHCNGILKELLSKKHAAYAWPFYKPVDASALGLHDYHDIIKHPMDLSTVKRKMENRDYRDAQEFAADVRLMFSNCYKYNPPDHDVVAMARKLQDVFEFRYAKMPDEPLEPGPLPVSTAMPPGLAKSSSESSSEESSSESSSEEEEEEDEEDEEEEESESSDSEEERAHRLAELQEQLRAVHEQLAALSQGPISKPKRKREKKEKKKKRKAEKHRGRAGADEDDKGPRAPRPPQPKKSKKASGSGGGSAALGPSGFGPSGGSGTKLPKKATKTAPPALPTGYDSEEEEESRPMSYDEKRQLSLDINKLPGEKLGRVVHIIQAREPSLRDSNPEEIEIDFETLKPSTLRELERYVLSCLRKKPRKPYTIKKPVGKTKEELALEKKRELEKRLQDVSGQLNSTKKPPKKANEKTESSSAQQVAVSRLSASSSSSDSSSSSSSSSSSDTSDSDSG

For `Cc1ncsc1-c1ccc(CNC(=O)[C@@H]2C[C@@H](O)CN2C(=O)[C@@H](NC(=O)COCC(C)(COCCOCCOCCOC(=O)C[C@@H]2N=C(c3ccc(Cl)cc3)c3c(sc(C)c3C)-n3c(C)nnc32)COCCOCCOCCN2CCN(c3cccc4c3C(=O)N(C3CCC(=O)NC3=O)C4=O)CC2)C(C)(C)C)cc1` (mixture of isomers) [AB3029 (31), (17S)-11-((2-(2-(2-(4-(2-(2,6-dioxopiperidin-3-yl)-1,3-dioxoisoindolin-4-yl)piperazin-1-yl)ethoxy)ethoxy)ethoxy)methyl)-17-((2S,4R)-4-hydroxy-2-((4-(4-methylthiazol-5-yl)benzyl)carbamoyl)pyrrolidine-1-carbonyl)-11,18,18-trimethyl-15-oxo-3,6,9,13-tetraoxa-16-azanonadecyl 2-((S)-4-(4-chlorophenyl)-2,3,9-trimethyl-6H-thieno[3,2-f][1,2,4]triazolo[4,3-a][1,4]diazepin-6-yl)acetate], the “λmax BRD2 (degradation rate)” value on BRD2 [1] was 1.90 h⁻¹ and 1.9 h⁻¹. In addition, the DC50 came to 52 ± 9.4 nM at BRD2 [2]; 14 ± 2.9 nM at BRD3; 14 ± 3.9 nM at BRD4^Long; 15 ± 2.4 nM on BRD4^Short; 580 ± 240 nM on CRBN. On CRBN, the “fold weaker degradation of CRBN compared with aniline tethered matched pair” value is 2.9 fold.
For `Cc1ncsc1-c1ccc(CNC(=O)[C@@H]2C[C@@H](O)CN2C(=O)[C@@H](NC(=O)COCC(C)(COCCOCCOCCOC(=O)C[C@@H]2N=C(c3ccc(Cl)cc3)c3c(sc(C)c3C)-n3c(C)nnc32)COCCOCCOCCN2CCN(c3cc4c(cc3F)C(=O)N(C3CCC(=O)NC3=O)C4=O)CC2)C(C)(C)C)cc1` (mixture of isomers) [AB3030 (32), (17S)-11-((2-(2-(2-(4-(2-(2,6-dioxopiperidin-3-yl)-6-fluoro-1,3-dioxoisoindolin-5-yl)piperazin-1-yl)ethoxy)ethoxy)ethoxy)methyl)-17-((2S,4R)-4-hydroxy-2-((4-(4-methylthiazol-5-yl)benzyl)carbamoyl)pyrrolidine-1-carbonyl)-11,18,18-trimethyl-15-oxo-3,6,9,13-tetraoxa-16-azanonadecyl 2-((S)-4-(4-chlorophenyl)-2,3,9-trimethyl-6H-thieno[3,2-f][1,2,4]triazolo[4,3-a][1,4]diazepin-6-yl)acetate], the DC50 at BRD2 [1] turned out to be 25 nM; on BRD2 [2], 28 ± 7.3 nM; on BRD3, 6.4 ± 1.9 nM; on BRD4^Long, 7.3 ± 2.1 nM; on BRD4^Short it was 9.4 ± 1.9 nM; on CRBN, 730 ± 270 nM. Further, the “λmax BRD2 (degradation rate)” value at BRD2 [1] came to 2.04 h⁻¹. Besides, at CRBN, the “fold weaker degradation of CRBN compared with aniline tethered matched pair” value is given as 3.7 fold.
Take `Cc1ncsc1-c1ccc(CNC(=O)[C@@H]2C[C@@H](O)CN2C(=O)[C@@H](NC(=O)COCC(C)(COCCOCCOCCNc2cccc3c2C(=O)N(C2CCC(=O)NC2=O)C3=O)COCCOCCOCCOC(=O)C[C@@H]2N=C(c3ccc(Cl)cc3)c3c(sc(C)c3C)-n3c(C)nnc32)C(C)(C)C)cc1` (mixture of isomers) [AB3062 (23), (17S)-11-((2-(2-(2-((2-(2,6-dioxopiperidin-3-yl)-1,3-dioxoisoindolin-4-yl)amino)ethoxy)ethoxy)ethoxy)methyl)-17-((2S,4R)-4-hydroxy-2-((4-(4-methylthiazol-5-yl)benzyl)carbamoyl)pyrrolidine-1-carbonyl)-11,18,18-trimethyl-15-oxo-3,6,9,13-tetraoxa-16-azanonadecyl 2-((S)-4-(4-chlorophenyl)-2,3,9-trimethyl-6H-thieno[3,2-f][1,2,4]triazolo[4,3-a][1,4]diazepin-6-yl)acetate]: the “λmax BRD2 (degradation rate)” value at BRD2 [1] amounted to 1.12 h⁻¹. The DC50 amounted to 58 ± 16 nM on BRD2 [2]; 11 ± 4.6 nM at BRD3; 2.5 ± 0.5 nM on BRD4^Long; 11 ± 3.7 nM at BRD4^Short; 200 ± 110 nM at CRBN.
With `Cc1ncsc1-c1ccc(CNC(=O)[C@@H]2C[C@@H](O)CN2C(=O)[C@@H](NC(=O)COCC(C)(COCCOCCOCCNc2cc3c(cc2F)C(=O)N(C2CCC(=O)NC2=O)C3=O)COCCOCCOCCOC(=O)C[C@@H]2N=C(c3ccc(Cl)cc3)c3c(sc(C)c3C)-n3c(C)nnc32)C(C)(C)C)cc1` (mixture of isomers) [AB3063 (26), (17S)-11-((2-(2-(2-((2-(2,6-dioxopiperidin-3-yl)-6-fluoro-1,3-dioxoisoindolin-5-yl)amino)ethoxy)ethoxy)ethoxy)methyl)-17-((2S,4R)-4-hydroxy-2-((4-(4-methylthiazol-5-yl)benzyl)carbamoyl)pyrrolidine-1-carbonyl)-11,18,18-trimethyl-15-oxo-3,6,9,13-tetraoxa-16-azanonadecyl 2-((S)-4-(4-chlorophenyl)-2,3,9-trimethyl-6H-thieno[3,2-f][1,2,4]triazolo[4,3-a][1,4]diazepin-6-yl)acetate], the DC50 at BRD2 [1] came out at 4.7 nM; on BRD2 [2], 14 ± 4.6 nM; at BRD3, 4.8 ± 2.4 nM; at BRD4^Long, 0.76 ± 0.1 nM; on BRD4^Short, 3.2 ± 0.9 nM; on CRBN, 200 ± 31 nM. Also, the “λmax BRD2 (degradation rate)” value at BRD2 [1] was found to be 1.72 h⁻¹.
As for `Cc1ncsc1-c1ccc(CNC(=O)[C@@H]2C[C@@H](O)CN2C(=O)[C@@H](NC(=O)COCC(COCCOCCOCCNc2cc3c(cc2F)C(=O)N(C2CCC(=O)NC2=O)C3=O)(COCCOCCOCCOC(=O)C[C@@H]2N=C(c3ccc(Cl)cc3)c3c(sc(C)c3C)-n3c(C)nnc32)COCCOCCOCCOC(=O)C[C@@H]2N=C(c3ccc(Cl)cc3)c3c(sc(C)c3C)-n3c(C)nnc32)C(C)(C)C)cc1` (mixture of isomers) [AB3124 (86)], the Dmax (usually the largest share of the target that was removed) on BRD2 [2] is approximately 80%. The “onset of the hook effect, BRD2” value on BRD2 [2] is 1 µM. For the same compound, the DC50 was found to be 1 ± 0.2 nM on BRD2 [2]; 3.5 ± 0.3 nM at BRD3; 2.2 ± 0.1 nM at BRD4^Long; 2.9 ± 0.3 nM on BRD4^Short; 113 ± 3.2 nM at CRBN.
